“And” between values parts separate entries of the source, which are not always exact repeats. Equal values may be shown once.
How the values were obtained:
[1] = tested on: 5-HT2 receptors; conditions: po; male CD rats; cited from earlier work
[2] = tested on: stereotypy induced by d-amphetamine sulphate; conditions: ip; d-amphetamine sulphate 10 mg/kg sc; male CD rats; cited from earlier work
[3] = tested on: D2-like receptors; conditions: po; male CD rats; cited from earlier work
[4] = tested on: catalepsy; conditions: ip; male CD rats; cited from earlier work
[5] = tested on: D1-receptors; conditions: po pretreatment; D2-mediated atypical jerking; male SD rats; cited from earlier work
[6] = tested on: locomotion induced by d-amphetamine sulphate; conditions: male CD rats, cited from earlier work
[7] = tested on: D1-like receptors; conditions: po; male CD rats; cited from earlier work
[8] = tested on: cocaine self-administration; assay: Cocaine self-administration, FR 30, drug component (Example 3)
[9] = tested on: food-maintained behavior; assay: Food-maintained responding, FR 30, food components (Example 3)
[10] = tested on: discriminative stimulus effects of cocaine; assay: Cocaine drug discrimination, pretreatment protocol (Example 2); format: in vivo, rhesus monkeys (Macaca mulatta)
Protocol: During the week, all food was delivered after the experimental session, whereas at weekends, food was delivered between 9 a.m. and noon. Water was freely available at all times.
A computer, located in a separate room, controlled the operant panels and data collection.
Discrimination Training: Discrimination training was conducted 5 days per week during daily sessions composed of multiple cycles. Each cycle consisted of a 15 min time-out period followed by a 5 min response period. During the time-out, all stimulus lights were off, and responding had no scheduled consequences. During the response period, the right and left response keys were transilluminated red or green, and monkeys could earn up to 10 food pellets by responding under a FR 30 schedule of food presentation. For one monkey, the left key was illuminated green and the right key was illuminated red; the colors of the response-keys were reversed for the other three monkeys. The center key was not illuminated at any time and responding on it had no scheduled consequences.
On training days, monkeys were given either saline or 0.40 mg/kg cocaine, i.m., 10 min before the response period. Following the administration of saline, responding on only the green key (the saline-appropriate key) produced food, whereas following administration of 0.40 mg/kg cocaine, only responding on the red key (the drug-appropriate key) produced food. Responses on the inappropriate key reset the FR requirement on the appropriate key. Sessions consisted of 1 to 5 cycles and, if cocaine was administered, this occurred only during the last cycle. Thus, training days consisted of 0 to 5 saline cycles followed by 0 or 1 cocaine cycle.
During each response period, 3 dependent variables were determined:
1) Percent injection-appropriate responding prior to delivery of the first reinforcer.
2) Percent injection-appropriate responding for the entire response period.
Monkeys meeting the following criteria during the training day immediately proceeding the test day and in at least 6 of 7 consecutive training sessions before this, were used for discrimination testing:
1) the percent injection-appropriate responding prior to delivery of the first reinforcer was ≧80% for all cycles;
2) the percent injection-appropriate responding for the entire cycle was ≧90% for all cycles;
3) Response rates during saline training cycles were >0.5 responses per second.
Discrimination Testing: Test sessions were identical to training sessions except that responding on either key produced food, and the test compound was administered using a Pretreatment Protocol. In this protocol, a cumulative dose-effect curve for cocaine (0.013-1.3 mg/kg) was determined either alone or following pretreatment with the test compound, which was administered 20 min before the first dose of cocaine.
Mean data from saline and drug cycles during the training day immediately proceeding the initial test day served as the control data for the subsequent test day.

[11] = i.m. 20 min before session, cocaine 0.003 mg/kg/inj, individual monkeys, hydrobromide

## COc1cc2c(cc1O)C(C1(c3ccccc3Cl)CC1)N(C)CC2 (single isomer, unassigned; (+)) [BTS 73 947, (+)-1-[1-(2-chlorophenyl)cyclopropyl]-7-hydroxy-6-methoxy-2-methyl-1,2,3,4-tetrahydroisoquinoline]
[1]
  protection of 5-HT2 receptors from EEDQ inactivation: no effect
[2]
  ED50 to inhibit stereotypy induced by d-amphetamine sulphate: 2.4 mg/kg
[3]
  protection of D2-like receptors from EEDQ inactivation: no effect
[4]
  ED50 to induce catalepsy: 25.4 mg/kg
  ratio of ED50 to induce catalepsy to ED50 to inhibit amphetamine locomotion: 36
[5]
  ED15 (dose induced 15 jerks in the 15 min test period): 3.4 mg/kg
[6]; behavioral models
  duration of action: > 6 h
  time of peak effect post-dose: 4 h
[6]; ip, d-amphetamine sulphate 2.5 mg/kg sc
  ED50 to inhibit locomotion induced by d-amphetamine sulphate: 0.7 mg/kg
[6]; ratio of stereotypy and locomotion ED50, ip
  fold greater potency against limbic DA function (locomotion vs stereotypy): ~3.5 fold
[7]
  ED50 for protection of D1-like receptors from EEDQ inactivation: 1 mg/kg

## Br.COc1cc2c(cc1O)C(C1(c3ccccc3Cl)CC1)N(C)CC2 (single isomer, unassigned; (+)) [test compound, (+)-1-[1-(2-chlorophenyl)cyclopropyl]-7-hydroxy-6-methoxy-2-methyl-1,2,3,4tetrahydroisoquinoline hydrobromide]
[8]; [11]
  ED50 for decreasing response rates maintained by cocaine (Drug component): 0.002 mg/kg and 0.001 mg/kg and 0.004 mg/kg
[8]; lower pretreatment dose (0.003 mg/kg), on average
  rightward shift of the peak of the dose-effect function for cocaine self-administration: 3 fold
[8]; pretreatment 0.003 and 0.01 mg/kg, any monkey
  surmountability of treatment effects by increased self-administration of higher unit doses of cocaine: not surmounted
[9]; Macaca mulatta, read-out: ED50 for decreasing response rates maintained by food (Food #1, preceded the drug component), i.m. 20 min before session, cocaine 0.003 mg/kg/inj, individual monkeys
  ED50: 0.003 mg/kg
[9]; [11]
  ED50 for decreasing response rates maintained by food (Food #1, preceded the drug component): 0.002 mg/kg
  ED50 for decreasing response rates maintained by food (Food #2, followed the drug component): 0.011 mg/kg and 0.006 mg/kg and 0.002 mg/kg
[9]; pretreatment 0.01 mg/kg
  effect on food-maintained response rates in the first component of food availability: appreciably decreased
[10]; 0.01 and 0.032 mg/kg, in combination with 0.013 and 0.04 mg/kg cocaine
  effect on responding (response rate) during first one to three cycles: eliminated responding
[10]; pretreatment 0.01 mg/kg, monkey 2
  fold increase in the cocaine ED50 value: 3 fold
[10]; pretreatment 0.01 mg/kg, the other three monkeys (1, 3, 4)
  effect on the cocaine discrimination dose-effect curve: no effect
[10]; pretreatment 0.032 mg/kg, all four monkeys
  effect on the cocaine discrimination dose-effect curve: rightward shifts
[10]; test compound 0.01 mg/kg 20 min before first cocaine dose, individual monkeys 1-4, hydrobromide
  ED50 for cocaine after pretreatment with test compound 0.01 mg/kg: 0.24 mg/kg and 0.23 mg/kg and 0.72 mg/kg
[10]; test compound 0.032 mg/kg 20 min before first cocaine dose, individual monkeys 1-4, hydrobromide
  ED50 for cocaine after pretreatment with test compound 0.032 mg/kg: 0.72 mg/kg and 0.071 mg/kg

## COC(=O)[C@H]1[C@@H](OC(=O)c2ccccc2)C[C@@H]2CC[C@H]1N2C.Cl [Cocaine, Cocaine hydrochloride, reference compound]
[10]; cocaine alone 0.4 mg/kg (training dose), all monkeys
  substitution for training stimulus (cocaine-appropriate responding): Complete substitution
[10]; cocaine alone 1.3 mg/kg
  effect on response rates: decreased response rates
[10]; cumulative cocaine 0.013-1.3 mg/kg i.m., no pretreatment, individual monkeys 1-4
  ED50 for cocaine (50% cocaine-appropriate responding), Cocaine Alone: 0.23 mg/kg

From US20020137767A1, “Methods for treating addictive disorders” (priority 1999, published 2002)
